The results in this text go back to paper PMC10066050, “Antimicrobial peptides CS-piscidin-induced cell death involves activation of RIPK1/PARP, and modification with myristic acid enhances its stability and tumor-targeting capability” (Discover. Oncology, 2023).

Where no end group is shown, it is not given here.

Data set [1] has as its system ID8 cells. It counts as cell-based, mouse. The settings on record: 24 h. Here is the method:
(§1) A2780, SKOV3, ID8, IOSE80, and HUVEC cells (2.0 × 10^3 per well) were seeded into 96-well plates in 100 μL culture medium. After 24 h of incubation, the medium was replaced with a medium containing various peptide concentrations. The cell viability after the peptide treatment was tested by CCK8 assay. Briefly, after 24 h treatment, 10 μL CCK8 was added to each well and incubated for 2 h. After incubation, the optical density (OD) at 450 nm was detected using a microplate reader. Cell viability was calculated using the formula: (%) = [D-D0]/[ D¯ -D0] × 100%. D was the OD value of the experimental group, D0 represented the OD value of the blank control group, while [ D¯ was the mean OD value of the control group.

Data set [2] concerns ID8-Luc cells. Description: Ovarian cancer peritoneal spread mouse model. It counts as in vivo. As to conditions: C57BL/6 mice, 5 mpk intraperitoneally every other day, 10 administrations; ascites volume after sacrifice. The method, then:
To create luciferase heredity stable ID8 cells, the PL-luciferase plasmid (Addgene, 21,471) was packaged by co-transfecting it with DVPR and VSVG packing plasmids using PEI in HEK293T. The virus-containing solution was then collected and cell debris was removed through a 0.45 μm filter. After infection, the cells were selected by treating them with 1 μg/mL puromycin for 3 days to eliminate the uninfected ID8 cells. The expression of luciferase in the cells was then confirmed using the Bio-Lumi™ Firefly Luciferase Reporter Gene Assay Kit (RG042S, Beyotime, China).
The animal experiment followed the Declaration of Helsinki guidelines and was approved by the Guangdong Medical University Animal Ethical Committee (GDY2102330). 5-week-old female C57BL/6 mice were obtained from Yancheng biological company and housed in an SPF laboratory at 26 ℃ with free access to water and food. Mice were intraperitoneally injected with 5 × 10^6 ID8-Luc-puro cells resuspended in 200 μL PBS. […] Body weight was measured every 5 days. After treatment, mice were injected with pentobarbitone and D-luciferin, and the luminescence signals were observed within 15 min using the live imaging system (In-vivo Xtreme, Bruker, USA). The fluorescence intensity was normalized and analyzed by Bruker MI SE software.

In data set [3] the test system is SKOV3 cells. The data set is classed as cell-based, human. As to conditions: 24 h. Here is the method: as §1
In data set [4] the test system is A2780 cells. It counts as cell-based, human. The settings on record: 24 h. The method, then:
as §1

Data set [5] has as its system OVCA429 cells. It counts as cell-based, human. The settings on record: 24 h.
The test system of data set [6] is human umbilical vein endothelial cells HUVEC. Description: CCK8 cell viability assay. The data set is classed as cell-based. The settings on record: 24 h. The method, then:
as §1
On the technique in general: Tetrazolium dyes change colour on reduction, which living cells bring about.

Data set [7] relates to normal ovary epithelial cell IOSE80. Description: CCK8 cell viability assay. It counts as cell-based. The settings on record: 24 h. Here is the method:
as §1

By IC50 is commonly meant the concentration needed to halve the response being measured. Higher therefore signals lower potency. In the case of FFKRLRNKFRLMRQAWKDYR [CS-piscidin], the IC50 was 19.8 ± 0.836 µM in data set [1]; 37.4 ± 5.09 µM in data set [3]; 9.44 ± 0.666 µM in data set [4]; 27.4 ± 1.16 µM in data set [5]; 14.3 ± 3.03 µM in data set [6]; 35.2 ± 3.14 µM in data set [7]. The “ascites / cytotoxicity to normal cells in vivo” value in data set [2] was “still produced ascites”.
